Experimental data taken from ChEMBL document CHEMBL1149513, “Arylpropionylpiperazines as antagonists of the human melanocortin-4 receptor” (Bioorg Med Chem Lett, 2006).

What was measured:
Melanocortin receptor 4 [1] = target: T1, Melanocortin receptor 4 (Homo sapiens, UniProt P32245); assay: Displacement of [125I]NDP-MSH from human MC4R expressed in HEK293 cells; format: cell-based
[2] = target: Melanocyte-stimulating hormone receptor (Homo sapiens) (UniProt Q01726); assay: Inhibition of [125I]NDP-MSH binding to human MC1R expressed in HEK293 cells; format: cell-based; conditions: concentration not given here
Melanocortin receptor 3 = Melanocortin receptor 3 (Homo sapiens, UniProt P41968); assay: Displacement of [125I]NDP-MSH from human MC3R expressed in HEK293 cells; format: cell-based
Melanocortin receptor 5 = Melanocortin receptor 5 (Homo sapiens, UniProt P33032); assay: Displacement of [125I]NDP-MSH from human MC5R expressed in HEK293 cells; format: cell-based
[3] = Ratio of drug level in brain against plasma in mouse after 1 hr at 5 mg/kg, iv; format: ADME, organism-based; parameters: dose 5 mg/kg, route intravenous; conditions: read-out: BPR
[4] = Bioavailability in mouse at 10 mg/kg, po; format: ADME, organism-based; conditions: in vivo
[5] = Half life in mouse at 5 mg/kg, iv; format: ADME, organism-based; parameters: dose 5 mg/kg, route intravenous; conditions: in vivo
[6] = Tmax in mouse at 10 mg/kg, po; format: ADME, organism-based; parameters: dose 10 mg/kg, route oral; conditions: in vivo
[7] = Lipophilicity, Log D of the compound; format: physicochemical; conditions: octanol/water
Mus musculus [8] = assay: AUC in mouse at 5 mg/kg, iv; format: ADME, organism-based, Plasma; parameters: dose 5 mg/kg, route intravenous; conditions: in vivo
[9] = target: Melanocortin receptor (M4 and M5) (Homo sapiens) (UniProt P32245+P33032); assay: Selectivity for MC4R over MC5R; format: protein assay
Mus musculus [10] = assay: AUC in mouse at 10 mg/kg, po; format: ADME, organism-based, Plasma; parameters: dose 10 mg/kg, route oral; conditions: in vivo
[11] = Drug level in mouse brain after 1 hr at 5 mg/kg, iv; format: ADME, organism-based; parameters: dose 5 mg/kg, route intravenous; conditions: read-out: Drug uptake
[12] = Ratio of drug level in brain against plasma in mouse after 4 hrs at 5 mg/kg, iv; format: ADME, organism-based; parameters: dose 5 mg/kg, route intravenous; conditions: read-out: BPR
[13] = Drug level in mouse brain after 4 hrs at 5 mg/kg, iv; format: ADME, organism-based; parameters: dose 5 mg/kg, route intravenous; conditions: read-out: Drug uptake
[14] = Clearance in mouse at 5 mg/kg, iv; format: ADME, organism-based; parameters: dose 5 mg/kg, route intravenous; conditions: in vivo
[15] = Cmax in mouse at 10 mg/kg, po; format: ADME, organism-based; parameters: dose 10 mg/kg, route oral; conditions: in vivo
[16] = Volume of distribution in mouse at 5 mg/kg, iv; format: ADME, organism-based; parameters: dose 5 mg/kg, route intravenous; conditions: in vivo, read-out: Vdss
Melanocortin receptor 4 [17] = target: T1, Melanocortin receptor 4; assay: Activity at MC4R assessed as inhibition of alpha-MSH-stimulated cAMP production; format: functional

Chain of Melanocortin receptor 5 (P33032 whole entry): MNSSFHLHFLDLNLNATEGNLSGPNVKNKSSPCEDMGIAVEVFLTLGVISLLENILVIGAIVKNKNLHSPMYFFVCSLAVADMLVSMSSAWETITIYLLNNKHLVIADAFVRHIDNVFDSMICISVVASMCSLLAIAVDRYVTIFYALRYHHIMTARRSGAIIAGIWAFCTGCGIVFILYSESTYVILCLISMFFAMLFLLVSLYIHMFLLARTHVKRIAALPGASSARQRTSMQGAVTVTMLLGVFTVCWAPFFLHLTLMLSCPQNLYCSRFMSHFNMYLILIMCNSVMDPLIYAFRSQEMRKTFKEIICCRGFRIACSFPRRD
T1 sequence (P32245 whole entry): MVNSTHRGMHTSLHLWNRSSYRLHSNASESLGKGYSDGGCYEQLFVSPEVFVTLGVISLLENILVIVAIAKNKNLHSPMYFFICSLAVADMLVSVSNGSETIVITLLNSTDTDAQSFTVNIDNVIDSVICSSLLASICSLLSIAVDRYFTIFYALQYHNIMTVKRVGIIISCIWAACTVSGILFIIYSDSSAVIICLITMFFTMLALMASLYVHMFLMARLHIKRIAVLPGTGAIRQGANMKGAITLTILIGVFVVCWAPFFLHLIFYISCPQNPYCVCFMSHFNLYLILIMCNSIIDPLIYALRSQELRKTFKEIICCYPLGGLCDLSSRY
Chain of Melanocyte-stimulating hormone receptor (Homo sapiens) (Q01726 whole entry, looked up): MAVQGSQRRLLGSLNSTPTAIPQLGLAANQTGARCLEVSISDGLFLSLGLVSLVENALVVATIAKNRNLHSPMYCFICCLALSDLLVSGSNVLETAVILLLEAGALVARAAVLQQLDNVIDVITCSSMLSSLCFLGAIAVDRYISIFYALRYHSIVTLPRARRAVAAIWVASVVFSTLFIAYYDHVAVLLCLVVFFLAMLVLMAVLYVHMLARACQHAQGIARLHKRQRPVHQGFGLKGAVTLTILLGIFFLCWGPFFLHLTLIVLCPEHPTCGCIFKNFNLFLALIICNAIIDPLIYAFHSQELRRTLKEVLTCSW
Chain of Melanocortin receptor 3 (P41968 whole entry): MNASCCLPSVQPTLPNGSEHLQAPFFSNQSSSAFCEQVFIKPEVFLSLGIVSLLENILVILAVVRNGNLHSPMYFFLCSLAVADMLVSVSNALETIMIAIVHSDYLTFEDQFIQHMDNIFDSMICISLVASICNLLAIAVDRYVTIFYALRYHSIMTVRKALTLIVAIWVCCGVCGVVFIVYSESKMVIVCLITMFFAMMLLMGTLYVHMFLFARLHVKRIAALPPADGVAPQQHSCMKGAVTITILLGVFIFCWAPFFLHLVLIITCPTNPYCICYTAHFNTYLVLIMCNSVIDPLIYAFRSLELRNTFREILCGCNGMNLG
Chain of Melanocortin receptor (M4 and M5) (Homo sapiens) (P32245 whole entry, looked up): as the sequence (P32245 whole entry) above
Chain of Melanocortin receptor (M4 and M5) (Homo sapiens) (P33032 whole entry, looked up): as the sequence (P33032 whole entry) above

SMILES	Ki (Melanocortin receptor 4 [1]) [µM]	other results
CCC(C)[C@H](NCc1ccccc1)c1cc(C(F)(F)F)ccc1N1CCN(C(=O)CCc2ccc(Cl)cc2Cl)CC1 (stereo not given in full)	5.9	
CCC(C)CN[C@H](c1cc(C(F)(F)F)ccc1N1CCN(C(=O)CCc2ccc(Cl)cc2Cl)CC1)C(C)CC (stereo not given in full)	2.8	
CC(N)c1cc(C(F)(F)F)ccc1N1CCN(C(=O)CCc2ccc(Cl)cc2Cl)CC1 (stereo not given)	0.49	
CCC(C)[C@H](NCCN)c1cc(C(F)(F)F)ccc1N1CCN(C(=O)CCc2ccc(Cl)cc2Cl)CC1 (stereo not given in full)	0.056	
CC(C)C[C@H](N)c1cc(C(F)(F)F)ccc1N1CCN(C(=O)CCc2ccc(Cl)cc2Cl)CC1	0.074	
NCCC(=O)NC(COCc1ccccc1)c1cc(F)ccc1N1CCN(C(=O)CCc2ccc(Cl)cc2Cl)CC1 (stereo not given)	0.21	
CCC(C)[C@H](N)c1cc(C(F)(F)F)ccc1N1CCN(C(=O)CCc2ccc(OC)c(OC)c2Cl)CC1 (stereo not given in full)	2.5	
CCC(C)[C@H](NCCc1ccccc1)c1cc(C(F)(F)F)ccc1N1CCN(C(=O)CCc2ccc(Cl)cc2Cl)CC1 (stereo not given in full)	2.6	
CCOCC(NC(=O)CCN)c1cc(F)ccc1N1CCN(C(=O)CCc2ccc(Cl)cc2Cl)CC1 (stereo not given)	0.3	
NC(COCc1ccccc1)c1cc(F)ccc1N1CCN(C(=O)CCc2ccc(Cl)cc2Cl)CC1 (stereo not given)	1	
COc1ccc(CCC(=O)N2CCN(c3ccc(C(F)(F)F)cc3[C@@H](N)CC(C)C)CC2)cc1	0.35	
CCC(C)[C@H](NC[C@@H]1CCCN1)c1cc(C(F)(F)F)ccc1N1CCN(C(=O)CCc2ccc(Cl)cc2Cl)CC1 (stereo not given in full)	0.064	
COc1cc(OC)c(OC)cc1CCC(=O)N1CCN(c2ccc(C(F)(F)F)cc2[C@@H](N)CC(C)C)CC1	6.1	
CC(C)C[C@H](N)c1cccc(F)c1N1CCN(C(=O)CCc2ccc(Cl)cc2Cl)CC1	0.11	inhibition [2]: 21%; Ki (Melanocortin receptor 3): 1.4 µM; Ki (Melanocortin receptor 5): 1.2 µM
CC(C)C[C@H](N)c1cc(C(F)(F)F)ccc1N1CCN(C(=O)CCc2csc3ccccc23)CC1	2.3	
Cc1cccc(CCC(=O)N2CCN(c3ccc(C(F)(F)F)cc3[C@@H](N)CC(C)C)CC2)c1	2.1	
CCCCC(N)c1cc(C(F)(F)F)ccc1N1CCN(C(=O)CCc2ccc(Cl)cc2Cl)CC1 (stereo not given)	0.19	
CCC(C)[C@H](N)c1cc(C(F)(F)F)ccc1N1CCN(C(=O)CCc2ccc(Cl)cc2)CC1 (stereo not given in full)	0.086	
COc1ccccc1CCC(=O)N1CCN(c2ccc(C(F)(F)F)cc2[C@@H](N)CC(C)C)CC1	1.4	

SMILES	Ki (Melanocortin receptor 4 [1]) [µM]	other results
CC(C)C[C@H](N)c1cc(C(F)(F)F)ccc1N1CCN(C(=O)CCc2cccs2)CC1	4.6	
COCCN[C@@H](CC(C)C)c1cc(C(F)(F)F)ccc1N1CCN(C(=O)CCc2ccc(Cl)cc2Cl)CC1	0.62	
CCC(C)[C@H](NC(=O)OC)c1cc(C(F)(F)F)ccc1N1CCN(C(=O)CCc2ccc(Cl)cc2Cl)CC1 (stereo not given in full)	2.4	
CN[C@@H](CC(C)C)c1cc(C(F)(F)F)ccc1N1CCN(C(=O)CCc2ccc(Cl)cc2Cl)CC1	1.9	
CC(C)C[C@H](NC(=O)CN)c1cc(C(F)(F)F)ccc1N1CCN(C(=O)CCc2ccc(Cl)cc2Cl)CC1	0.019	Kp at 1 h [3]: 0.08; bioavailability [4]: 11.2%; half-life [5]: 3.8 h; Tmax [6]: 2 h; inhibition [2]: 18%; logD [7]: 4.5; AUC (Mus musculus [8]): 3070 ng·h/mL; Selectivity ratio [9]: > 25; AUC (Mus musculus [10]): 687 ng·h/mL; concentration at 1 h [11]: 43 ng/g; Kp at 4 h [12]: 0.17; concentration at 4 h [13]: 33 ng/g; clearance [14]: 26.9 mL/min/kg; Cmax [15]: 115 ng/mL; Ki (Melanocortin receptor 3): 1.2 µM; Vd [16]: 8.8 L/kg; IC50 (Melanocortin receptor 4 [17]): 1.3 µM; Ki (Melanocortin receptor 5): 0.5 µM
CC(C)C(N)c1cc(C(F)(F)F)ccc1N1CCN(C(=O)CCc2ccc(Cl)cc2Cl)CC1 (stereo not given)	0.14	
CCC(C)[C@H](NC[C@H]1CCCN1)c1cc(C(F)(F)F)ccc1N1CCN(C(=O)CCc2ccc(Cl)cc2Cl)CC1 (stereo not given in full)	0.11	
CCC(C)[C@H](NC(=O)CCN)c1cc(C(F)(F)F)ccc1N1CCN(C(=O)CCc2ccc(Cl)cc2Cl)CC1 (stereo not given in full)	0.013	Kp at 1 h [3]: 0.02; bioavailability [4]: 26.1%; half-life [5]: 5.2 h; Tmax [6]: 6 h; inhibition [2]: 17%; logD [7]: 4; AUC (Mus musculus [8]): 23100 ng·h/mL; AUC (Mus musculus [10]): 12100 ng·h/mL; concentration at 1 h [11]: 62 ng/g; Kp at 4 h [12]: 0.03; concentration at 4 h [13]: 70 ng/g; clearance [14]: 3.5 mL/min/kg; Cmax [15]: 1170 ng/mL; Ki (Melanocortin receptor 3): 0.8 µM; Vd [16]: 1.6 L/kg; IC50 (Melanocortin receptor 4 [17]): 1.1 µM; Ki (Melanocortin receptor 5): 0.17 µM
CC[C@H](C)C(N)c1cc(C(F)(F)F)ccc1N1CCN(C(=O)CCc2ccc(Cl)cc2Cl)CC1 (stereo not given in full)	0.075	
CCC(C)[C@H](NC[C@H](C)N)c1cc(C(F)(F)F)ccc1N1CCN(C(=O)CCc2ccc(Cl)cc2Cl)CC1 (stereo not given in full)	0.089	
CC(C)C[C@H](N)c1cc(C(F)(F)F)ccc1N1CCN(C(=O)CCc2ccccc2Cl)CC1	1.7	
CCN[C@@H](CC(C)C)c1cc(C(F)(F)F)ccc1N1CCN(C(=O)CCc2ccc(Cl)cc2Cl)CC1	0.17	
CCC(C)[C@H](NCc1ccccc1F)c1cc(C(F)(F)F)ccc1N1CCN(C(=O)CCc2ccc(Cl)cc2Cl)CC1 (stereo not given in full)	> 10	
CC(C)C[C@H](N)c1cc(C(F)(F)F)ccc1N1CCN(C(=O)CCc2ccc3c(c2)OCO3)CC1	1.5	
CCN[C@H](c1cc(C(F)(F)F)ccc1N1CCN(C(=O)CCc2ccc(Cl)cc2Cl)CC1)C(C)CC (stereo not given in full)	0.092	
CC(C)C[C@H](N)c1cc(F)ccc1N1CCN(C(=O)CCc2ccc(Cl)cc2Cl)CC1	0.094	
CC(C)C[C@H](N)c1cc(C(F)(F)F)ccc1N1CCN(C(=O)CCc2ccc(O)cc2)CC1	> 10	
CC(C)C[C@H](N)c1cc(C(F)(F)F)ccc1N1CCN(C(=O)CCc2c[nH]c3ccccc23)CC1	0.64	
CC(C)C[C@H](N)c1cc(C(F)(F)F)ccc1N1CCN(C(=O)CCc2cn(C)c3ccccc23)CC1	3	

SMILES	Ki (Melanocortin receptor 4 [1]) [µM]	other results
CCC(C)[C@H](NCC1CCCO1)c1cc(C(F)(F)F)ccc1N1CCN(C(=O)CCc2ccc(Cl)cc2Cl)CC1 (stereo not given in full)	0.78	
CC(C)C[C@H](N)c1cc(C(F)(F)F)ccc1N1CCN(C(=O)CCc2cccc(C(F)(F)F)c2)CC1	2.2	
Cc1[nH]c2ccccc2c1CCC(=O)N1CCN(c2ccc(C(F)(F)F)cc2[C@@H](N)CC(C)C)CC1	1.6	
COc1ccc(CCC(=O)N2CCN(c3ccc(C(F)(F)F)cc3[C@@H](N)CC(C)C)CC2)cc1OC	4.3	
CCC(C)[C@H](NS(C)(=O)=O)c1cc(C(F)(F)F)ccc1N1CCN(C(=O)CCc2ccc(Cl)cc2Cl)CC1 (stereo not given in full)	1.8	
CC(C)C[C@H](N)c1cc(C(F)(F)F)ccc1N1CCN(C(=O)CCc2ccccc2O)CC1	3.3	
COc1cccc(CCC(=O)N2CCN(c3ccc(C(F)(F)F)cc3[C@@H](N)CC(C)C)CC2)c1	4	
CC(C)C[C@H](N)c1cc(C(F)(F)F)ccc1N1CCN(C(=O)CCc2ccccc2F)CC1	2.8	
CCC(C)C(N)c1cc(C(F)(F)F)ccc1N1CCN(C(=O)CCc2ccc(Cl)cc2Cl)CC1 (stereo not given)	0.16	
CCC(C)[C@H](NCCCN)c1cc(C(F)(F)F)ccc1N1CCN(C(=O)CCc2ccc(Cl)cc2Cl)CC1 (stereo not given in full)	0.03	
CCC(C)[C@H](NC(C)=O)c1cc(C(F)(F)F)ccc1N1CCN(C(=O)CCc2ccc(Cl)cc2Cl)CC1 (stereo not given in full)	0.36	
NCCNC(COCc1ccccc1)c1cc(F)ccc1N1CCN(C(=O)CCc2ccc(Cl)cc2Cl)CC1 (stereo not given)	0.4	
CC(C)C[C@H](N)c1cc(C(F)(F)F)ccc1N1CCN(C(=O)CCc2c(Cl)cccc2Cl)CC1	2.6	
COc1ccc(OC)c(CCC(=O)N2CCN(c3ccc(C(F)(F)F)cc3[C@@H](N)CC(C)C)CC2)c1	2.5	
CC(C)C[C@H](N)c1cc(C(F)(F)F)ccc1N1CCN(C(=O)CCc2ccc(S(C)(=O)=O)cc2)CC1	4.9	
CCC(C)[C@H](NC(=O)CN)c1cc(C(F)(F)F)ccc1N1CCN(C(=O)CCc2ccc(Cl)cc2Cl)CC1 (stereo not given in full)	0.018	
CCOCC(N)c1cc(F)ccc1N1CCN(C(=O)CCc2ccc(Cl)cc2Cl)CC1 (stereo not given)	0.69	
CCC(C)[C@H](N)c1cc(C(F)(F)F)ccc1N1CCN(C(=O)CCc2ccc(OC)cc2Cl)CC1 (stereo not given in full)	0.057	
CC(C)C[C@H](NC(=O)CCN)c1cc(C(F)(F)F)ccc1N1CCN(C(=O)CCc2ccc(Cl)cc2Cl)CC1	0.025	
